Here are results for 19 compounds from US10519132B2, “Isocorydine derivatives, preparation method and use thereof” (Lanzhou Institute of Chemical Physics, Chinese Academy of …, priority 2017, dated 2019).

Assay [1] concerns human liver cancer cell strain HepG2. Kind of assay: MTT growth inhibition on HepG2.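 Further: adherent cells in 96-well plates treated with a concentration series for 24, 48 or 72 h, MTT absorbance read at 490 nm, inhibition computed relative to untreated control wells.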 In kind it is cell-based.
Description: (§1) By using an MTT method, a sample solution to be tested was added to a 96-well plate in which cancer cells were adherently grown. Culturing was performed for a certain period, and the growth inhibition effect of a compound on a human cancer cell strain for primary screening was measured to determine the anti-cancer activity of the compound.
(§2) Cell culture: A cell incubator was set to conditions of 37° C., 5% CO2, and a saturated humidity, cells were cultured under these conditions, and the cell medium was a DMEM complete medium, wherein 10% fetal bovine serum, 100 IU/mL penicillin, and 100 μg/mL streptomycin were comprised.
(§3) The single cell suspension was diluted to 5×10^3/100 μL after counting, inoculated on a 96-well cell culture plate (triplicate), and adherently cultured overnight;
(§4) After 24 h of adhesion, the complete medium was discarded, 100 μL-sample-solutions to be tested having different concentrations were sequentially added to the 96-well plate according to a concentration gradient, and incubations were continued for 24 h, 48 h, and 72 h;
(§5) The culture liquid was discarded, a 0.5 mg/mL MTT diluted working liquid was added, and incubation was performed for 4 h by placing in an incubator;
(§6) The culture liquid was discarded, 100 μL of DMSO was added, low-speed oscillation was performed for 10 min by placing on a shaker, and the spectrophotometric value of each well was measured at a wavelength of 490 nm by using a microplate reader. Statistical analysis was performed and tumor cell growth inhibition rate was calculated according to the equation: Growth inhibition rate=(OD value of control group−OD value of experimental group)/OD value of control group.
(§7) Culturing was performed for a certain period, the growth inhibition effect of a compound on 3 human cancer cell strains for primary screening was measured to determine the anti-cancer activity of the compound, and a growth inhibition curve was plotted.
In assay [2] the test system is human cervical cancer Hela cell strains. Kind of assay: MTT growth inhibition on Hela.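 Further: compound exposure of 24, 48 or 72 h in DMEM with 10% fetal bovine serum, MTT absorbance read at 490 nm, inhibition calculated relative to control group OD.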
Description: as §1, §2, §3, §4, §5, §6, §7
For assay [3], the system named is human gastric cancer cell strain MGC-803. Kind of assay: MTT growth inhibition on MGC-803.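 Further: adherent cells exposed to compound over a concentration gradient for 24, 48 and 72 h, MTT absorbance at 490 nm, inhibition relative to untreated control wells.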
Description: as §1, §2, §3, §4, §5, §6, §7
The mark [4] stands for this setting: Homo sapiens, HepG2, Table 1, MTT, read-out: IC50 HepG2.
The mark [5] stands for this setting: Homo sapiens, HeLa, read-out: IC50 HeLa.
Where [6] appears, read: Homo sapiens, MGC-803, read-out: IC50 MGC-803.
[7] abbreviates: Homo sapiens, HepG2, read-out: IC50 HepG2.
The mark [8] stands for this setting: Homo sapiens, HeLa, read-out: IC50 HeLa, Table 1, MTT.
[9] abbreviates: Homo sapiens, MGC-803, read-out: IC50 MGC-803, Table 1, MTT.

Read-outs that look alike come from different tables or passages of the source.

For `COc1cc(NC(=O)Nc2ccc(Cl)c(Cl)c2)c2c(c1O)-c1c(OC)c(OC)cc3c1C(C2)N(C)CC3` (stereo not drawn) [Compound 2, 8-(N-(3′,4′-dichloro-phenyl))-ureido-isocorydine], the concentration for half-maximal inhibition (IC50) (in general, the concentration needed to halve the response being measured) in assay [1] (setting [4]) stood at 28.4 µM; in assay [2] (setting [5]), 21.7 µM; in assay [3] (setting [6]), 30 µM.

On to `COc1cc(NC(=O)Nc2ccc(C)cc2)c2c(c1OC(=O)Nc1ccc(C)cc1)-c1c(OC)c(OC)cc3c1C(C2)N(C)CC3` (stereo not drawn) [Compound 3], for which the IC50 came out at 16.1 µM in assay [1] (setting [7]), 19.1 µM in assay [2] (setting [5]) and 25.6 µM in assay [3] (setting [6]).

Take `COc1cc(NC(=O)Nc2ccc(SC)cc2)c2c(c1O)-c1c(OC)c(OC)cc3c1C(C2)N(C)CC3` (stereo not drawn) [Compound 4, 8-(N-(4′-methylsulfide-phenyl))-ureido-isocorydine]: the half-maximal inhibitory concentration (IC50) in assay [1] (setting [4]) was found to be 53.2 µM; in assay [2] (setting [8]) it was 46.6 µM; in assay [3] (setting [9]), 47.8 µM.

For the compound `COc1cc(NC(=O)Nc2ccccc2Cl)c2c(c1O)-c1c(OC)c(OC)cc3c1C(C2)N(C)CC3` (stereo not drawn) [Compound 5, 8-(N-(2′-dichloro-phenyl))ureido-isocorydine], the IC50 stood at 36.7 µM in assay [1] (setting [4]), 36.9 µM in assay [2] (setting [8]) and 35.2 µM in assay [3] (setting [9]).

Consider `COc1cc(NC(=O)Nc2ccccc2Cl)c2c(c1OC(=O)Nc1ccccc1Cl)-c1c(OC)c(OC)cc3c1C(C2)N(C)CC3` (stereo not drawn) [Compound 6], for which the half-inhibitory concentration (IC50) came to 17.2 µM in assay [1] (setting [7]), 27.1 µM in assay [2] (setting [5]) and 26.9 µM in assay [3] (setting [6]).

In the case of `COc1cc(NC(=O)Nc2ccccc2C)c2c(c1OC(=O)Nc1ccccc1C)-c1c(OC)c(OC)cc3c1C(C2)N(C)CC3` (stereo not drawn) [Compound 7], the IC50 was 31.4 µM in assay [1] (setting [7]), 43.9 µM in assay [2] (setting [5]) and 22.8 µM in assay [3] (setting [6]).

Turning to `COc1cc(NC(=O)Nc2ccc(C(F)(F)F)cc2)c2c(c1O)-c1c(OC)c(OC)cc3c1C(C2)N(C)CC3` (stereo not drawn) [Compound 8, 8-(N-(4′-trifluoromethyl-phenyl))-ureido-isocorydine], the values for the concentration for half-maximal inhibition (IC50) in assay [1] (setting [4]), in assay [2] (setting [8]) and in assay [3] (setting [9]) were 45.9 µM, 49 µM and 57.3 µM, respectively.

Regarding `COc1cc(NC(=O)Nc2ccc(C(F)(F)F)cc2)c2c(c1OC(=O)Nc1ccc(C(F)(F)F)cc1)-c1c(OC)c(OC)cc3c1C(C2)N(C)CC3` (stereo not drawn) [Compound 9], the IC50 came to 44.1 µM in assay [1] (setting [7]), 47.7 µM in assay [2] (setting [5]) and 39.3 µM in assay [3] (setting [6]).

Take `COc1cc(NC(=O)Nc2ccc(F)cc2)c2c(c1OC(=O)Nc1ccc(F)cc1)-c1c(OC)c(OC)cc3c1C(C2)N(C)CC3` (stereo not drawn) [Compound 10]: the concentration for half-maximal inhibition (IC50) in assay [1] (setting [7]) is 26.7 µM; in assay [2] (setting [5]), 26.8 µM; in assay [3] (setting [6]), 25.1 µM.

Take `COc1cc(NC(=O)c2ccc(Cl)c(C(F)(F)F)c2)c2c(c1O)-c1c(OC)c(OC)cc3c1C(C2)N(C)CC3` (stereo not drawn) [Compound 11, 8-N-(3′-trifluoromethyl-4′-chloro-benzoyl)-isocorydine]: the 50% inhibitory concentration (IC50) in assay [1] (setting [4]) came to 21.5 µM; in assay [2] (setting [8]), 16.6 µM; in assay [3] (setting [9]), 21.9 µM.

`COc1cc(NC(=O)/C=C/c2ccccc2)c2c(c1O)-c1c(OC)c(OC)cc3c1C(C2)N(C)CC3` (stereo not drawn) [Compound 12, 8-N-trans-cinnamoyl-isocorydine]: the IC50 came out at 63.4 µM in assay [1] (setting [4]), 74.5 µM in assay [2] (setting [8]) and 37.9 µM in assay [3] (setting [9]).

Turning to `COc1cc(NC(=O)c2cc(Cc3n[nH]c(=O)c4ccccc34)ccc2F)c2c(c1O)-c1c(OC)c(OC)cc3c1C(C2)N(C)CC3` (stereo not drawn) [Compound 13, 8-N-[2-fluoro-5-(4-oxo-3,4-dihydrophthalazin-1-yl)methyl]benzamido isocorydine], the 50% inhibitory concentration (IC50) was determined as 30.2 µM in assay [1] (setting [4]), 29.6 µM in assay [2] (setting [8]) and 27.2 µM in assay [3] (setting [9]).

Regarding `COc1cc(NC(=O)c2cccnc2)c2c(c1O)-c1c(OC)c(OC)cc3c1C(C2)N(C)CC3` (stereo not drawn) [Compound 14, 8-N-nicotinamido-isocorydine], the IC50 in assay [1] (setting [4]) was found to be 69.8 µM; in assay [2] (setting [8]), 49.6 µM; in assay [3] (setting [9]), 34.7 µM.

On to `COc1cc(NC(=O)Nc2ccccc2)c2c(c1O)-c1c(OC)c(OC)cc3c1C(C2)N(C)CC3` (stereo not drawn) [Compound 15, 8-N-(phenyl)-ureido-isocorydine], for which the IC50 came out at 75.4 µM in assay [1] (setting [4]), 62.1 µM in assay [2] (setting [5]) and 56.6 µM in assay [3] (setting [6]).

For `COc1cc(NC(=O)Nc2ccc(N3CCC(CNC(=O)OC(C)(C)C)CC3)c(C(F)(F)F)c2)c2c(c1O)-c1c(OC)c(OC)cc3c1C(C2)N(C)CC3` (stereo not drawn) [Compound 16, 8-[3-trifluoromethyl-4-(4-methylaminoformic acid tert-butyl ester)piperidine]benzoylureido isocorydine], the IC50 in assay [1] (setting [4]) was found to be 18.9 µM; in assay [2] (setting [8]), 22.1 µM; in assay [3] (setting [9]), 23.2 µM.

Turning to `CCC(=O)NCC1CCN(c2ccc(NC(=O)Nc3cc(OC)c(O)c4c3CC3c5c(cc(OC)c(OC)c5-4)CCN3C)cc2C(F)(F)F)CC1` (stereo not drawn) [Compound 18, 8-[3-trifluoromethyl-4-(4-methylaminoformic acid propyl ester)-piperidine]benzoylureido isocorydine], the figures for the concentration for half-maximal inhibition (IC50) in assay [1] (setting [4]), in assay [2] (setting [8]) and in assay [3] (setting [9]) were 10.7 µM, 12.5 µM and 10.4 µM, respectively.

As for `COc1cc(NC(=O)Nc2ccc(N3CCC(NC(=O)OC(C)(C)C)CC3)c(C(F)(F)F)c2)c2c(c1O)-c1c(OC)c(OC)cc3c1C(C2)N(C)CC3` (stereo not drawn) [Compound 19, 8-N-[3′-trifluoromethyl-4′-(4″-aminoformic acid tert-butyl ester-piperidine)-phenyl]-ureido isocorydine], the half-inhibitory concentration (IC50) in assay [1] (setting [4]) came out at 25.9 µM; in assay [2] (setting [8]) it was 26.7 µM; in assay [3] (setting [9]), 28.7 µM.

Take `COc1cc(NC(=O)Nc2ccc(N3CCC(N)CC3)c(C(F)(F)F)c2)c2c(c1O)-c1c(OC)c(OC)cc3c1C(C2)N(C)CC3` (stereo not drawn) [Compound 20, 8-(N-(3′-trifluoromethyl-4′-(4″-amino-piperidine)-phenyl))-ureido-isocorydine]: the values for the IC50 in assay [1] (setting [4]), in assay [2] (setting [8]) and in assay [3] (setting [9]) were 18.6 µM, 13.7 µM and 22.3 µM, respectively.

Turning to `COC1=CC(=O)c2cc3c4c(cc(OC)c(OC)c4c2C1=O)CCN3C` [TICD, isocorydione, reference compound], the 50% inhibitory concentration (IC50) in assay [1] (Table 2, MTT, read-out: IC50 HepG2) is 40 µM; in assay [2] (read-out: IC50 Hela, Table 2, MTT), 31.3 µM; in assay [3] (read-out: IC50 MGC-803, Table 2, MTT), 49.6 µM.
